Tested on: AMPA receptors in cerebral white matter
Experiment: Intracerebral AMPA injection white matter injury
Type: in vivo
Experimental: The methods used in this example are described in Follett et al. (2000) J. Neurosci. 20:9235-9241, incorporated by reference herein.
NBQX attenuation of the selective white matter injury after hypoxia/ischemia implicated GluR-mediated toxicity as an important mechanism of injury in immature OLs. To confirm a relationship between the activation of AMPA receptors in cerebral white matter and the vulnerability to injury, AMPA was injected directly into immature white matter. […] Minimal to no injury was present in vehicle-injected controls (M K801 alone; n=7) at the same age (t test, p<0.001).
To determine whether AMPA toxicity was age dependent, lesion size after intracerebral AMPA injections at P4, P7, and P11 was compared.

Cc1o[nH]c(=O)c1CC(N)C(=O)O (centres unmarked) [AMPA]
white matter injury after intracerebral injection (P7 rat pups, 5 nmol of AMPA plus 5 nmol of MK-801, vs MK-801 alone p<0.001): produced white matter injury
white matter injury (pericallosal lesion size) after injection at P4 and P11 compared with P7 (intracerebral AMPA, one-way ANOVA p<0.001): significantly less white matter injury

— patent US6921775B2, “Methods for modulating brain damage” (Children's Medical Center Corporation, priority 2001, dated 2005)
